# Test system: 883617-216-R-J1-PDC tumor spheroids, viability
# Test: Anticancer human tumor 883617-216-R-J1-PDC patient-derived bladder carcinoma cell line growth inhibition [PI3K]
# Details: spheroids with HUVEC and MSC; for IC50: curve of first compound; for viability, T/C: stronger effect = lower value
# Method in brief: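 Targeted small molecules plus PI3K inhibitors, half-log dose series from Cmax (default top 10 microM), were applied to heterotypic spheroids of cancer cells with HUVEC and MSCs. Viability indicated growth inhibition.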
# [1] = second compound 0.0316 µM, first compound 0.0316 µM
# [2] = second compound 0.0316 µM, first compound 0.1 µM
# [3] = second compound 0.0316 µM, first compound 0.316 µM
# [4] = second compound 0.0316 µM, first compound 1 µM
# [5] = second compound 0.0316 µM, first compound 3.16 µM
# [6] = second compound 0.0316 µM, first compound 10 µM
# [7] = second compound 0.1 µM, first compound 0.0316 µM
# [8] = second compound 0.1 µM, first compound 0.1 µM
# [9] = second compound 0.1 µM, first compound 0.316 µM
# [10] = second compound 0.1 µM, first compound 1 µM
# [11] = second compound 0.1 µM, first compound 3.16 µM
# [12] = second compound 0.1 µM, first compound 10 µM
# [13] = second compound 0.316 µM, first compound 0.0316 µM
# [14] = second compound 0.316 µM, first compound 0.1 µM
# [15] = second compound 0.316 µM, first compound 0.316 µM
# [16] = second compound 0.316 µM, first compound 1 µM
# [17] = second compound 0.316 µM, first compound 3.16 µM
# [18] = second compound 0.316 µM, first compound 10 µM
# [19] = second compound 1 µM, first compound 0.0316 µM
# [20] = second compound 1 µM, first compound 0.1 µM
# [21] = second compound 1 µM, first compound 0.316 µM
# [22] = second compound 1 µM, first compound 1 µM
# [23] = second compound 1 µM, first compound 3.16 µM
# [24] = second compound 1 µM, first compound 10 µM
# [25] = second compound 3.16 µM, first compound 0.0316 µM
# [26] = second compound 3.16 µM, first compound 0.1 µM
# [27] = second compound 3.16 µM, first compound 0.316 µM
# [28] = second compound 3.16 µM, first compound 1 µM
# [29] = second compound 3.16 µM, first compound 3.16 µM
# [30] = second compound 3.16 µM, first compound 10 µM
# [31] = second compound 10 µM, first compound 0.0316 µM
# [32] = second compound 10 µM, first compound 0.1 µM
# [33] = second compound 10 µM, first compound 0.316 µM
# [34] = second compound 10 µM, first compound 1 µM
# [35] = second compound 10 µM, first compound 3.16 µM
# [36] = second compound 10 µM, first compound 10 µM
# 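Also: spheroids exposed to agents for 7 days before the viability read.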
smiles,measurement,setting,value
C#Cc1c(F)ccc2cc(O)cc(-c3ncc4c(N5CC6CCC(C5)N6)nc(OCC56CCCN5CC(F)C6)nc4c3F)c12 (stereo not given) + CC(Nc1ncnc2nc[nH]c12)c1cc2cccc(Cl)c2c(=O)n1-c1ccccc1,IC50,second compound 0.0316 µM,> 10 µM
same,IC50,second compound 0.1 µM,> 10 µM
same,IC50,second compound 0.316 µM,> 10 µM
same,IC50,second compound 1 µM,> 10 µM
same,IC50,second compound 3.16 µM,5.97 µM
same,IC50,second compound 10 µM,0.12 µM
same,"viability, T/C",[1],91.5%
same,"viability, T/C",[2],109%
same,"viability, T/C",[3],84.2%
same,"viability, T/C",[4],94.8%
same,"viability, T/C",[5],78%
same,"viability, T/C",[6],61.1%
same,"viability, T/C",[7],101%
same,"viability, T/C",[8],96.7%
same,"viability, T/C",[9],95.1%
same,"viability, T/C",[10],84.9%
same,"viability, T/C",[11],94.8%
same,"viability, T/C",[12],56.5%
same,"viability, T/C",[13],77.6%
same,"viability, T/C",[14],86.1%
same,"viability, T/C",[15],78.5%
same,"viability, T/C",[16],94.3%
same,"viability, T/C",[17],76.4%
same,"viability, T/C",[18],54.5%
same,"viability, T/C",[19],84.1%
same,"viability, T/C",[20],81.9%
same,"viability, T/C",[21],74.2%
same,"viability, T/C",[22],73%
same,"viability, T/C",[23],69.9%
same,"viability, T/C",[24],49.7%
same,"viability, T/C",[25],77.6%
same,"viability, T/C",[26],70.4%
same,"viability, T/C",[27],60.3%
same,"viability, T/C",[28],70.7%
same,"viability, T/C",[29],55.1%
same,"viability, T/C",[30],44.3%
same,"viability, T/C",[31],52.1%
same,"viability, T/C",[32],56.4%
same,"viability, T/C",[33],39.1%
same,"viability, T/C",[34],45.1%
same,"viability, T/C",[35],33.2%
same,"viability, T/C",[36],26.6%
C=CC(=O)N1CCN(c2nc(=O)n(-c3c(C)ccnc3C(C)C)c3nc(-c4c(O)cccc4F)c(F)cc23)C(C)C1 (stereo not given) + CC(Nc1ncnc2nc[nH]c12)c1cc2cccc(Cl)c2c(=O)n1-c1ccccc1,IC50,second compound 0.0316 µM,> 10 µM
same,IC50,second compound 0.1 µM,> 10 µM
same,IC50,second compound 0.316 µM,< 0.0316 µM
same,IC50,second compound 1 µM,0.0739 µM
same,IC50,second compound 3.16 µM,< 0.0316 µM
same,IC50,second compound 10 µM,< 0.0316 µM
same,"viability, T/C",[1],59.4%
same,"viability, T/C",[2],41.1%
same,"viability, T/C",[3],49.5%
same,"viability, T/C",[4],55.3%
same,"viability, T/C",[5],59.9%
same,"viability, T/C",[6],64.2%
same,"viability, T/C",[7],60.9%
same,"viability, T/C",[8],46.9%
same,"viability, T/C",[9],48.4%
same,"viability, T/C",[10],57.9%
same,"viability, T/C",[11],63.4%
same,"viability, T/C",[12],62%
same,"viability, T/C",[13],55.9%
same,"viability, T/C",[14],43.4%
same,"viability, T/C",[15],40.8%
same,"viability, T/C",[16],59.1%
same,"viability, T/C",[17],48.7%
same,"viability, T/C",[18],54.8%
same,"viability, T/C",[19],63.3%
same,"viability, T/C",[20],45.2%
same,"viability, T/C",[21],43%
same,"viability, T/C",[22],45.7%
same,"viability, T/C",[23],37.1%
same,"viability, T/C",[24],45.6%
same,"viability, T/C",[25],43.2%
same,"viability, T/C",[26],36.2%
same,"viability, T/C",[27],27.2%
same,"viability, T/C",[28],37.5%
same,"viability, T/C",[29],37.6%
same,"viability, T/C",[30],45.4%
same,"viability, T/C",[31],26.1%
same,"viability, T/C",[32],20.1%
same,"viability, T/C",[33],19.6%
same,"viability, T/C",[34],21.9%
same,"viability, T/C",[35],28.8%
same,"viability, T/C",[36],31.7%
CC(Cn1ccc(-c2ccc(C#N)c(Cl)c2)n1)NC(=O)c1cc(C(C)O)[nH]n1 (stereo not given) + CC(Nc1ncnc2nc[nH]c12)c1cc2cccc(Cl)c2c(=O)n1-c1ccccc1,IC50,second compound 0.0316 µM,> 10 µM
same,IC50,second compound 0.1 µM,> 10 µM
same,IC50,second compound 0.316 µM,> 10 µM
same,IC50,second compound 1 µM,> 10 µM
same,IC50,second compound 3.16 µM,> 10 µM
same,IC50,second compound 10 µM,< 0.0316 µM
same,"viability, T/C",[1],98.1%
same,"viability, T/C",[2],104%
same,"viability, T/C",[3],90.5%
same,"viability, T/C",[4],103%
same,"viability, T/C",[5],103%
same,"viability, T/C",[6],95.3%
same,"viability, T/C",[7],94.5%
same,"viability, T/C",[8],84.7%
same,"viability, T/C",[9],84.6%
same,"viability, T/C",[10],100%
same,"viability, T/C",[11],95.3%
same,"viability, T/C",[12],97%
same,"viability, T/C",[13],95.8%
same,"viability, T/C",[14],92.9%
same,"viability, T/C",[15],90.7%
same,"viability, T/C",[16],97.9%
same,"viability, T/C",[17],95.5%
same,"viability, T/C",[18],90.7%
same,"viability, T/C",[19],78.3%
same,"viability, T/C",[20],77.1%
same,"viability, T/C",[21],78.3%
same,"viability, T/C",[22],86.9%
same,"viability, T/C",[23],90.8%
same,"viability, T/C",[24],76.8%
same,"viability, T/C",[25],76.7%
same,"viability, T/C",[26],70.9%
same,"viability, T/C",[27],61.2%
same,"viability, T/C",[28],61%
same,"viability, T/C",[29],68.1%
same,"viability, T/C",[30],74.2%
same,"viability, T/C",[31],52.9%
same,"viability, T/C",[32],43.1%
same,"viability, T/C",[33],44.6%
same,"viability, T/C",[34],51.4%
same,"viability, T/C",[35],43.7%
same,"viability, T/C",[36],50%
Cn1ncc(Cl)c1-c1cc(C(=O)NC(CN)Cc2cccc(F)c2)sc1Cl (stereo not given) + CC(Nc1ncnc2nc[nH]c12)c1cc2cccc(Cl)c2c(=O)n1-c1ccccc1,IC50,second compound 0.0316 µM,0.518 µM
same,IC50,second compound 0.1 µM,0.443 µM
same,IC50,second compound 0.316 µM,0.539 µM
same,IC50,second compound 1 µM,0.394 µM
same,IC50,second compound 3.16 µM,0.257 µM
same,IC50,second compound 10 µM,< 0.0316 µM
same,"viability, T/C",[1],90.3%
same,"viability, T/C",[2],88.7%
same,"viability, T/C",[3],58.2%
same,"viability, T/C",[4],36%
same,"viability, T/C",[5],13.7%
same,"viability, T/C",[6],6.6%
same,"viability, T/C",[7],74.9%
same,"viability, T/C",[8],83.1%
same,"viability, T/C",[9],55.2%
same,"viability, T/C",[10],30.2%
same,"viability, T/C",[11],12.4%
same,"viability, T/C",[12],6.85%
same,"viability, T/C",[13],89%
same,"viability, T/C",[14],89%
same,"viability, T/C",[15],63.1%
same,"viability, T/C",[16],33.9%
same,"viability, T/C",[17],10.6%
same,"viability, T/C",[18],7.26%
same,"viability, T/C",[19],84.4%
same,"viability, T/C",[20],67.1%
same,"viability, T/C",[21],57.9%
same,"viability, T/C",[22],31.8%
same,"viability, T/C",[23],11.7%
same,"viability, T/C",[24],6.93%
same,"viability, T/C",[25],86.4%
same,"viability, T/C",[26],70.1%
same,"viability, T/C",[27],44.6%
same,"viability, T/C",[28],25.6%
same,"viability, T/C",[29],13.2%
same,"viability, T/C",[30],5.57%
same,"viability, T/C",[31],50.3%
same,"viability, T/C",[32],40.3%
same,"viability, T/C",[33],37.1%
same,"viability, T/C",[34],23%
same,"viability, T/C",[35],10.5%
same,"viability, T/C",[36],5.07%
Cn1nccc1Nc1nccc(-c2ccn(C(CO)c3ccc(Cl)c(F)c3)c(=O)c2)n1 (stereo not given) + CC(Nc1ncnc2nc[nH]c12)c1cc2cccc(Cl)c2c(=O)n1-c1ccccc1,IC50,second compound 0.0316 µM,7.98 µM
same,IC50,second compound 0.1 µM,5.28 µM
same,IC50,second compound 0.316 µM,7.48 µM
same,IC50,second compound 1 µM,4.18 µM
same,IC50,second compound 3.16 µM,0.764 µM
same,IC50,second compound 10 µM,< 0.0316 µM
same,"viability, T/C",[1],100%
same,"viability, T/C",[2],90.3%
same,"viability, T/C",[3],72.5%
same,"viability, T/C",[4],67.4%
same,"viability, T/C",[5],66.5%
same,"viability, T/C",[6],43.5%
same,"viability, T/C",[7],87.3%
same,"viability, T/C",[8],86.8%
same,"viability, T/C",[9],70.1%
same,"viability, T/C",[10],62.6%
same,"viability, T/C",[11],65.3%
same,"viability, T/C",[12],38.6%
same,"viability, T/C",[13],88.4%
same,"viability, T/C",[14],71.2%
same,"viability, T/C",[15],71.2%
same,"viability, T/C",[16],66.8%
same,"viability, T/C",[17],64%
same,"viability, T/C",[18],44%
same,"viability, T/C",[19],77.9%
same,"viability, T/C",[20],74.6%
same,"viability, T/C",[21],64.5%
same,"viability, T/C",[22],61%
same,"viability, T/C",[23],52%
same,"viability, T/C",[24],43.6%
same,"viability, T/C",[25],63.7%
same,"viability, T/C",[26],69.5%
same,"viability, T/C",[27],50%
same,"viability, T/C",[28],50.3%
same,"viability, T/C",[29],37.2%
same,"viability, T/C",[30],24.9%
same,"viability, T/C",[31],46.7%
same,"viability, T/C",[32],40.9%
same,"viability, T/C",[33],35.7%
same,"viability, T/C",[34],31.4%
same,"viability, T/C",[35],29.5%
same,"viability, T/C",[36],22.2%

# Source: PubChem BioAssay AID1963973 (Molecular Pharmacology Branch, DTP, NCI, 2024)
